These results are taken from patent publication US7790896B2, “RNA-selective probes for live cell imaging of nuclear structure and function” (New York University, priority 2006, dated 2010).

The structures appear in SMILES notation.

Data set [1] deals with RNA (16S- and 23S-ribosomal from E. coli). The data set is described as follows: Fluorescent properties of dye-RNA solution. In kind it is binding. Particulars: for EM (emission λmax), RNA / EX (excitation λmax), RNA: TE buffer pH 7.5, dye 5 μM; for EM (emission λmax), RNA / EX (excitation λmax), RNA / ΦF RNA (quantum yield) / ε RNA (extinction coefficient): RNA 200 μg/mL; for ΦF RNA (quantum yield) / ε RNA (extinction coefficient): TE buffer pH 7.5, dye 5 μM for E36, 10 μM for E144 and F22; for ΦF RNA/ΦF free: ratio of quantum yields with RNA 200 μg/mL and free. The protocol: (§1) The fluorescence spectra data in the primary screening and selected dyes titration assay study was obtained by Gemini XS plate reader. RNA solution was prepared right before the assay experiments to avoid possible degradation and contamination. In the primary screening, 1 mg/mL RNA (type VI from torula yeast) buffer solution was used. Point scans were carried out first using five Ex/Em point sets ([…], 400/500, 450/550, 500/600, 550/650 nm). Spectra scans were then carried out for the selected dyes. Excitation wavelengths were set at 350 nm, 400 nm, 450 nm, 500 nm, and 550 nm and the emission wavelengths were scanned. RNA (16S- and 23S-ribosomal from E. coli) and DNA (salmon testes) titration experiments and quantum yield/extinction coefficient determination for the three best dyes were carried out by the plate reader as well. Excitation λmax obtained from F-2500 Hitachi Fluorophotometer was used. Absorbance wavelength was determined by SpectraMax Plus^384 absorbance plate reader. […] was chosen as standard and 480 nm was used as excitation wavelength in the scanning for quantum yield determination. […] Generally, the λmax (nm) of emission was determined by scanning a fixed excitation first, and the μmax (nm) of excitation was determined by scanning emission spectrum with a fixed μem (nm). The detailed fluorescent properties of three selected dyes including; excitation/emission μmax, the quantum yield and extinction coefficient of both free dye solution and dye-RNA solution were assessed (Table 5).

In data set [2] the test system is RNA (Type VI from torula yeast). The data set is described as follows: In vitro solution assay (primary screening): fluorescent emission fold change upon binding to RNA. Particulars: dye 10 μM, RNA 500 μg/mL in TE buffer. Here is the method: The fluorescence spectra data in the primary screening and selected dyes titration assay study was obtained by Gemini XS plate reader. RNA solution was prepared right before the assay experiments to avoid possible degradation and contamination. In the primary screening, 1 mg/mL RNA (type VI from torula yeast) buffer solution was used. Point scans were carried out first using five Ex/Em point sets ([…], 400/500, 450/550, 500/600, 550/650 nm). Spectra scans were then carried out for the selected dyes. Excitation wavelengths were set at 350 nm, 400 nm, 450 nm, 500 nm, and 550 nm and the emission wavelengths were scanned. RNA (16S- and 23S-ribosomal from E. coli) and DNA (salmon testes) titration experiments and quantum yield/extinction coefficient determination for the three best dyes were carried out by the plate reader as well. Excitation λmax obtained from F-2500 Hitachi Fluorophotometer was used. Absorbance wavelength was determined by SpectraMax Plus^384 absorbance plate reader. […] was chosen as standard and 480 nm was used as excitation wavelength in the scanning for quantum yield determination.
The screening strategy used in this study is illustrated in FIG. 2. Both in vitro RNA assays and live cell imaging methods were utilized in the primary screening of the dye library. Selective binding of the dye to RNA in solution was the primary criterion for selecting lead compounds for subsequent bioimaging studies, Herein, the library dyes' fluorescent emission intensity fold change upon binding to RNA was measured in solution. Dyes showing five-fold or higher emission changes in the presence of RNA were selected (Table 3). Note the dyes listed are identified by the building blocks I and II from Table 2. For example, A4 is the product made by reacting compound A from the list of Building block I and compound 4 from the list of Building block II.

The next data set concerns 3T3 cells. In words: Live cell staining working concentration in 3T3 cells. The data set is classed as cell-based, mouse. Here is the method:
(§2) All cell staining imaging followed the same procedure. Generally, dyes in dry state were first dissolved in DMSO to obtain the stock solution. The stock solutions were then added directly to the cell culture wells to reach the desired concentration. Total DMSO was lower than 0.1%. After adding dyes, cells were incubated at 37° C. in 5% CO2 for 25 minutes. The medium was then removed and cells were rinsed with fresh medium twice. The cells were then imaged at ambient temperature in the medium. Exposure time was kept less than 5 seconds and adjusted to each dye.
In fluorescence microscopic imaging studies, it is always desirable to use as little dye as possible to stain organelles in order to maximize specificity and minimize dye toxicity and cell death. To determine the lowest working concentration of each dye, four different concentrations (20 μM, 10 μM, 5 μM, and 1 μM) were tested in four cell lines (Hela, A549, 3T3, and 3T3-L1). Dyes E36, E144, and F112 were imaged using FITC channel, and F22 was imaged using Cy3 channel. Generally, a quality fluorescence signal for each dye was produced using a concentration of 5 μM for E36, E144, and F22 and 10 μM for F112 (Table 5). It was interesting to observe that compound F22 was brighter in 3T3 cells, and a concentration of 1 μM was sufficient for a clear image (FIG. 4). […]

Data set [3] can be described thus: Fluorescent properties of free dye solution. Particulars: for EM (emission λmax), Buffer / EX (excitation λmax), Buffer: TE buffer pH 7.5, dye 5 μM; for ε free (extinction coefficient) / ΦF free (quantum yield): TE buffer pH 7.5, dye 5 μM for E36, 10 μM for E144 and F22; for ΦF free (quantum yield): Rhodamine 6G standard. The data set is classed as physicochemical. The protocol: as §1

Data set [4] has as its system Fixed-permeabilized Hela cells. In words: DNase and RNase digest test. The data set is classed as cell-based, human. Particulars: dye 50 μM, 2 hours; for Fluorescence after RNase digest: 25 μg/mL DNase-Free RNase; for Fluorescence after DNase digest: 30 μg/mL DNase. The protocol: Cells were first fixed using cold (−4° C.) pure methanol for 1 minute at ambient temperature. The cell membrane was then permeabilized by immersion in 1% Triton X-100 for 2 minutes. After rinsing with PBS twice, 100 μL of 50 μM dye PBS solution was added to three adjacent wells. Cells were then incubated in this dye PBS solution for 15 minutes in ambient temperature before being rinsed with clean PBS twice. 100 μL clean PBS (as control experiment), 30 μg/mL DNase (Sigma), or 25 μg/mL DNase-Free RNase (GE) was added to the three adjacent wells and incubated at 37° C. in 5% CO2 for 2 hours. Cells were rinsed with clean PBS twice before imaging. For each dye test, the fluorescent images were obtained using equal exposure time for control, DNase and RNase experiments. DAPI (10 μM) in PBS and SYTO®RNASelect (5 μM) in PBS solution were used for dual staining experiments. Duplicate experiments have been tested.
To further confirm that the compounds selectively bind RNA, a deoxyribonuclease (DNase) and ribonuclease (RNase) digest test was performed. In DNase digest, only the DNAs in the cell would be hydrolyzed. By contrast, in RNase digest, only RNAs would be hydrolyzed. Fixed-permeabilized Hela cells were used in this experiment and DAPI and SYTO®RNASelect were used as control dyes (FIG. 6). […] Still, its higher RNA-selective binding in live cell might be due to the complicated in vivo live cell environment, which may preferably direct this dye to nucleoli.

The subject of data set [5] is Hela, A549, 3T3, and 3T3-L1. In words: Optimization of working concentration and imaging properties, live cell staining. In kind it is cell-based, human, mouse. Particulars: 20, 10, 5 and 1 μM tested in four cell lines. Here is the method: as §2
In fluorescence microscopic imaging studies, it is always desirable to use as little dye as possible to stain organelles in order to maximize specificity and minimize dye toxicity and cell death. To determine the lowest working concentration of each dye, four different concentrations (20 μM, 10 μM, 5 μM, and 1 μM) were tested in four cell lines (Hela, A549, 3T3, and 3T3-L1). Dyes E36, E144, and F112 were imaged using FITC channel, and F22 was imaged using Cy3 channel. Generally, a quality fluorescence signal for each dye was produced using a concentration of 5 μM for E36, E144, and F22 and 10 μM for F112 (Table 5). It was interesting to observe that compound F22 was brighter in 3T3 cells, and a concentration of 1 μM was sufficient for a clear image (FIG. 4). […] Little photobleaching and no obvious cell morphology or viability changes were observed during the tests.

In the case of `COc1ccc2c(ccc(/C=C/c3ccc(N(C)C)cc3)[n+]2C)c1` [Dye F22], in data set [1], the “EM (emission λmax), RNA” value is on record as 620 nm; the “EX (excitation λmax), RNA” value worked out at 548 nm; the “ΦF RNA (quantum yield)” value is 0.0075; the “ε RNA (extinction coefficient)” value turned out to be 20000 M⁻¹ cm⁻¹. Moreover, the “ΦF RNA/ΦF free” value in data set [1] was 10.7. In data set [2], the “Em(nm)” value was 640 nm, the “Ex(nm)” value is given as 500 nm and the “Fold (fluorescent emission fold changes to RNA)” value is listed as 23. In the data set on 3T3 cells, the “Concentration sufficient for a clear image” value was 1 µM. For the same compound, in data set [3], the “EM (emission λmax), Buffer” value came out at 598 nm; the “EX (excitation λmax), Buffer” value was 492 nm; the “ε free (extinction coefficient)” value was 17400 M⁻¹ cm⁻¹; the “ΦF free (quantum yield)” value stood at 0.0007. For the same compound, in data set [4], the “Fluorescence after RNase digest” value is “overall decrease in intensity” and the “Fluorescence after DNase digest” value is “nucleolar stain remained bright”.
Consider `COc1cc(OC)c(/C=C/c2ccc3ccccc3[n+]2C)c(OC)c1` [Dye E144], for which, in data set [1], the “EM (emission λmax), RNA” value came out at 532 nm; the “EX (excitation λmax), RNA” value was found to be 456 nm; the “ΦF RNA (quantum yield)” value is 0.0310; the “ε RNA (extinction coefficient)” value was found to be 14600 M⁻¹ cm⁻¹. Moreover, the “ΦF RNA/ΦF free” value in data set [1] came to 5.5. The “Optimum Concentration for live cell imaging” value in data set [5] stood at 5 µM. Further, in data set [2], the “Em(nm)” value turned out to be 540 nm, the “Ex(nm)” value stood at 450 nm and the “Fold (fluorescent emission fold changes to RNA)” value came out at 5. In data set [3], the “EM (emission λmax), Buffer” value is given as 532 nm; the “EX (excitation λmax), Buffer” value is listed as 440 nm; the “ε free (extinction coefficient)” value was 13200 M⁻¹ cm⁻¹; the “ΦF free (quantum yield)” value came out at 0.0056. Also, in data set [4], the “Fluorescence after RNase digest” value is “not detectable” and the “Fluorescence after DNase digest” value was “not detectable”.
For `C[n+]1c(/C=C/c2c[nH]c3ccccc23)ccc2ccccc21` [Dye E36], in data set [1], the “EM (emission λmax), RNA” value is listed as 548 nm; the “EX (excitation λmax), RNA” value amounted to 497 nm; the “ΦF RNA (quantum yield)” value is on record as 0.1041; the “ε RNA (extinction coefficient)” value worked out at 43100 M⁻¹ cm⁻¹. The “ΦF RNA/ΦF free” value in data set [1] was found to be 54.6. Further, in data set [5], the “Optimum Concentration for live cell imaging” value is 5 µM. In data set [3], the “EM (emission λmax), Buffer” value stood at 541 nm; the “EX (excitation λmax), Buffer” value is given as 457 nm; the “ε free (extinction coefficient)” value was 39400 M⁻¹ cm⁻¹; the “ΦF free (quantum yield)” value is 0.0019. In data set [4], the “Fluorescence after RNase digest” value is recorded as “dramatically diminished” and the “Fluorescence after DNase digest” value is on record as “stayed almost the same”.
